Experimental findings from a melting point compilation (Tetko et al.; mined from patent text by program, amines drawn as free bases though some values may be those of a salt) are described below.

Each structure is given as a SMILES string.

With `CCOC(=O)c1cnc(-c2ccc(OC)cc2OC)[nH]c1=O`, the melting point (commonly the temperature, or range, at which the solid turns liquid) fell in the range of 190 to 192 °C.

Take `CN(C)C=C1CCN(Cc2ccc([N+](=O)[O-])cc2)c2ccsc2C1=O`: the melting point lay in the range of 214 to 216 °C.

Consider `CC(C)c1cc2c(cc1O)C(C)(C)CCC2(C)C`, for which the melting point was 79 to 80 °C.

`CC(C)(Cc1ccccc1)C(NC(=O)CCc1ccccc1)Nc1c(Nc2cccnc2)c(=O)c1=O` (stereo not given) returned a melting point of 221 to 223 °C.

With `CCOC(=O)NN=COC(N)CC` (stereo not given), the melting point was determined as 100 °C.

Take `Cc1[nH]cnc1CSCCN=C(N)N`: the melting point lay within 141 to 142 °C.

`COP(=O)(OC)C(O)=Cc1ccccc1F` gave a melting point of 71 to 73 °C.

As for `Nc1ccc(C23CC2C(=O)N(Cc2ccccc2)C3=O)cc1` (stereo not given), the melting point lay in the range of 147 to 149 °C.

For the compound `O=c1[nH]cnc2cc(OCc3ccccc3)ccc12`, the melting point was in the range of 267 to 269 °C.

Regarding `CCCCC1OC(=O)c2cc(NC3CCCC3)ccc21` (stereo not given), the melting point was in the range of 79 to 81 °C.

Take `Cc1cc(-c2ccc(C(F)(F)F)cc2)nc(-c2cccc(-c3cccc(S(N)(=O)=O)c3)n2)c1`: the melting point was 229 °C.

`Cc1c(C(=O)O)cccc1-n1c(C)ccc1C` yielded a melting point of 142 to 143 °C.

`CCOC(=O)c1ccc(C#CC(O)c2cc(C(C)(C)C)cc(C(C)(C)C)c2OCOC)cc1` (stereo not given) gave a melting point of 89 to 91 °C.

As for `C/C(=C\c1ccc2c(c1)OCO2)C(=O)O`, the melting point was determined as 205 °C.

With `CCOC(=O)C1C(=O)N(Cc2ccc(Br)cc2F)C(=O)c2cccn21` (stereo not given), the melting point was in the range of 114 to 115 °C.

Compound `Cc1[nH]nc(Oc2ccc([N+](=O)[O-])cc2C(F)(F)F)c1C` yielded a melting point of 97 to 99 °C.

In the case of `Cc1ccc2c(c1)CC(N1CCN(CCN3CCOC3=O)CC1)c1cc(Cl)ccc1S2` (stereo not given), the melting point was 174 to 175 °C.

In the case of `COc1ccc(C2(C#Cc3csc(C(=O)O)c3)CCC(=O)CC2)cc1OC1CCCC1`, the melting point is 80 to 82 °C.

On to `CCOC(=O)Nc1ccc(C23CC4CC(CC(C4)C2)C3)cc1`, for which the melting point fell in the range of 132 to 134 °C.

In turn, `O=C1CCCc2c1ccc(O)c2CCc1ccccc1` had a melting point of 185 to 188 °C.

In turn, `O=C(N[C@H]1CC[C@H](CCN2CCC(c3cccc4c3CCO4)CC2)CC1)c1ccc2c(c1)OCO2` yielded a melting point of 233 °C.

Compound `CCCc1ccc(S(=O)(=O)Nc2ccc3oncc3c2)cc1` displayed a melting point of 130 to 131 °C.

The compound `CCOC(=O)c1cnn(-c2ccc(F)cc2)c1` showed a melting point of 119 to 121 °C.

In the case of `N#Cc1cccc(CN2CCc3ccccc32)c1`, the melting point lay within 54.5 to 56 °C.

As for `Cc1cc(C)c(S(=O)(=O)OCCCCOS(=O)(=O)c2c(C)cc(C)cc2C)c(C)c1`, the melting point was 109 °C.

In turn, `CCOC(=O)c1ccc(C=C2C(=O)COC2=O)s1` returned a melting point of 204 to 206 °C.

`COC(=O)C(=NO)c1cccc(Oc2ccccc2)c1` gave a melting point of 122 to 123 °C.

Compound `CN1C(=O)N(c2cc(Cl)cc(Cl)c2)C(=O)/C1=C\c1ccc(C#N)cc1` displayed a melting point of 239 to 241 °C.

Consider `CCCC1=C(C#N)C(c2ccccc2Cl)c2c[nH]nc2N1` (stereo not given), for which the melting point turned out to be 248 °C.

Take `Cc1nc(-n2nnc(C(=O)NCc3ccccc3)c2C)sc1C(=O)NCc1ccccc1`: the melting point was 183 to 186 °C.

As to `Cc1cccc2oc(Nc3ccc(C(=O)O)cc3)nc12`, the melting point lay in the range of 327 to 329 °C.

Compound `COc1ccc(-c2ccc(C(=O)Nc3ccc4cc(CN5CCCC5)cnc4c3)cc2)cc1` showed a melting point of 202 to 204 °C.

With `Nc1nc(N)c2cc(Cc3ccc(Cl)cc3)ccc2n1`, the melting point is 224 to 225 °C.

`O=C(Nc1ccc(Cl)cc1)/C(Br)=C/Br`: the melting point was in the range of 99.5 to 100 °C.

Compound `Cn1cnnc1C(OCCO)(c1ccc(F)cc1)c1cc2c3c(c1)c(-c1cccc(Cl)c1)cc(=O)n3CC2` (stereo not given) displayed a melting point of 138 °C.

The compound `CC(=O)NCCc1cn(S(=O)(=O)c2ccc(C)cc2)c2ccc(O)cc12` yielded a melting point of 173 to 174 °C.

As for `O=C(N[C@H](Cc1ccccc1)C(=O)O)C1CCCC1`, the melting point fell in the range of 102 to 104 °C.

Compound `CC(=O)Oc1ccc(CC2CCCN2C)cc1OC(C)=O` (stereo not given) displayed a melting point of 44 to 45 °C.

Take `CCc1cc(Nc2ccccc2)cc(CC)c1N`: the melting point fell in the range of 42 to 44 °C.

Consider `CCOc1nn(-c2c(Cl)cc(C(F)(F)F)cc2Cl)c(N)c1-c1cccc(C(F)(F)F)c1`, for which the melting point lay in the range of 77 to 78 °C.

With `COc1ccc(C(O)c2ccccn2)c(Cl)c1Cl` (stereo not given), the melting point lay within 174 to 176 °C.

`CC(C)C[C@H](O)[C@H](O)[C@@H](N)CC1CCCCC1` came in with a melting point of 110 to 111 °C.

`C[C@H]1CCCC(C)(C)[C@@H]1[C@H](O)c1ccc(C#N)c(C(F)(F)F)c1`: the melting point lay within 118 to 119 °C.

Compound `CS(=O)C1C(O)C(CO)OC1n1ccc(=O)[nH]c1=O` (stereo not given) displayed a melting point of 219 to 221 °C.

Compound `O=C(NCCc1ccccn1)Nc1cc(N2CC(c3ccccc3)CC2=O)ccn1` (stereo not given) gave a melting point of 202 to 204 °C.

Compound `c1ccc2c(c1)c1ccccc1n2-c1ccc(-c2ccc(-n3c4ccccc4c4ccccc43)cc2)cc1` registered a melting point of 280 to 281 °C.

As for `COc1cc2c(cn1)CC(CC(=O)O)C=C2` (stereo not given), the melting point was in the range of 151 to 152 °C.

For `Oc1ccccc1OCCOCCOc1ccccc1O`, the melting point amounted to 85 °C.

Take `Cc1cccc(Cn2cccc2C(=O)CC(=O)C(=O)O)c1`: the melting point is 140 to 141 °C.

`O=C(c1ccccc1)C1CCN(CCS(=O)c2ccc3[nH]c(=O)oc3c2)CC1` (stereo not given) came in with a melting point of 68 to 72 °C.

`CC(=O)c1c(C(C)C)nn2ccccc12` showed a melting point of 74 °C.

`Cc1cc2oc(=O)c3c(c2cc1C)CCN(CCN1CCCCC1)C3` yielded a melting point of 142 to 145 °C.

`CC(C)(C)CN1C(=O)C2CC(c3ccc(N)cc3)(C2)C1=O` showed a melting point of 142 to 143 °C.

Compound `N#Cc1cc(F)c(O)nc1O` registered a melting point of 135 to 140 °C.

On to `CC(C)c1ccc(S(=O)(=O)n2c(Cc3ccc(C(=O)O)c(O)c3)cc3cc(C(F)(F)F)ccc32)cc1`, for which the melting point was found to be 150 °C.

Regarding `Cc1ccc(C2CCN(C(=O)CCC(=O)c3ccc4c(c3)CNCC4)CC2)cc1`, the melting point is 119 to 120 °C.

Consider `CCc1c(-c2ccncc2)[nH]c(-c2ccncc2)c1C(C)=O`, for which the melting point was 241 to 243 °C.

In turn, `COc1ccc(-c2nc(CN(c3ccccc3)c3ccccc3)nc3cc(OC)c(OC)cc23)cc1OC` registered a melting point of 215 to 216 °C.

As for `COc1ccc(CN[C@@H]2CCCC[C@H]2NCc2ccc(OC)cc2)cc1` (relative stereo), the melting point is 110 to 112 °C.

Compound `COc1ccc2sc(C(=O)NCCCCC(=O)O)c(OC(C)C)c2c1` gave a melting point of 135 to 137 °C.

On to `C=CCON1C(=O)c2ccc(Cl)c3c(N4CC[C@H](NC(=O)OC(C)(C)C)C4)cc(Cl)c(c23)C1=O`, for which the melting point is 123 to 125 °C.

Regarding `CCn1c(C(=O)c2cc(C)cc(CCC#N)c2)c(C(C)C)c(=O)[nH]c1=O`, the melting point fell in the range of 173 to 174 °C.

On to `Cc1nccc2c3ccc(OCc4cccc(F)c4)cc3n(Cc3cccc(F)c3)c12`, for which the melting point amounted to 148 °C.

The compound `O=C(O)c1ccc2c(c1)c(=O)[nH]c(=O)n2CCCCN1CCC(OC(c2ccccc2)c2ccccc2)CC1` gave a melting point of 161 to 163 °C.

`CC(=O)Nc1cnc(-c2ccccc2)nc1N` returned a melting point of 224 to 225 °C.

Take `Cc1c(C(=O)N2CCC[C@H](C)C2)[nH]c2ccccc12`: the melting point was 198 to 200 °C.

Regarding `CC(C)c1nc(COCCOC(N)=O)n(Cc2ccccn2)c1Sc1cc(F)cc(F)c1`, the melting point is 110 to 111 °C.

Consider `CC(=O)OCCOc1ncnc(NS(=O)(=O)c2ccc(C)cc2)c1C=O`, for which the melting point is 130 to 144 °C.

As for `COc1c(O)ccc(C(=O)c2ccccc2)c1Cl`, the melting point lay within 123 to 125 °C.

`CC(=O)N1CCN(CC2CN=C(c3cc4cc(OCCCS(C)(=O)=O)cc(N(C)S(=O)(=O)c5ccccn5)c4[nH]3)S2)CC1` (stereo not given) returned a melting point of 165 to 167 °C.

`CC1=NCN(c2ccc(Br)s2)O1` yielded a melting point of 48 to 49 °C.

As to `Cc1oc(-c2ccccc2)nc1CCOc1ccc(COc2ccccc2CC(=O)O)cc1`, the melting point fell in the range of 141 to 142 °C.

Consider `CCCC(=O)CCCC(=O)CCCSCCCC(C)(C)C(=O)OCC`, for which the melting point fell in the range of 104 to 105 °C.

In the case of `CN(CCCN)CCCNc1ccc2ncn3c4ccccc4c(=O)c1c23`, the melting point was in the range of 97 to 99 °C.

As for `C(=C\c1nc(COc2ccccc2CCCn2cncn2)co1)/c1ccccc1`, the melting point was in the range of 72 to 73 °C.

Compound `Cc1ccc(-c2c(C(=O)Nc3nccs3)nc(-c3cccc4ccccc34)n2Cc2ccccc2)cc1` came in with a melting point of 231 to 232 °C.

Regarding `CCOC(=O)C(=O)Nc1coc2cc(OC)ccc2c1=O`, the melting point was 218 to 220 °C.

Take `CCC1Oc2ccc(Br)cc2N(CC(O)CO)C1=O` (stereo not given): the melting point was determined as 91 °C.

`CCCCCCCCN(C)C(N)=NC#N` registered a melting point of 101 to 104 °C.

Compound `CSc1ccc(-c2coc3ccc(C(=O)NN)cc23)cc1Cl` yielded a melting point of 207 to 208 °C.

On to `COc1cc(N2CCN([C@H]3CC[C@H](c4cn(C)c5ccc(C#N)cc54)CC3)CC2)c2ncccc2c1Cl`, for which the melting point is 215 to 216 °C.

`Cn1nc(C(F)(F)F)cc1Oc1cc(Oc2cc(C(F)(F)F)nn2C)nc(Oc2cc(C(F)(F)F)nn2C)c1` had a melting point of 130 °C.

With `COC(=O)c1cc(I)cc2c(=O)cc[nH]c12`, the melting point was 75 to 77 °C.

As to `COCCOc1ncc(Cl)c(N)c1Cl`, the melting point fell in the range of 92 to 93.5 °C.

Consider `Cc1cc(NC(=O)C(=O)N(C)C)cc(C)c1S(=O)(=O)C[N+](=O)[O-]`, for which the melting point fell in the range of 171 to 172 °C.

Compound `CNC(=O)c1c(-c2ccccc2)noc1CC(=O)c1ccccc1` yielded a melting point of 125 to 128 °C.

Compound `CC(C)c1ccc(C2(OC(=O)N(C)C)C(=O)c3ccccc3C2=O)c(O)c1` yielded a melting point of 114 to 118 °C.

In turn, `CC(C)(C)OC(=O)NCCc1ccc(Oc2cc(C#N)ccn2)cc1` registered a melting point of 92 to 96 °C.

For the compound `COC(=O)c1cc(OC)c(CCNC(C)=O)c(OC)c1`, the melting point lay within 233 to 235 °C.

Consider `CC1=C(c2ccccc2)C(c2ccccc2OCc2ccccc2)C([N+](=O)[O-])=C(C)N1` (stereo not given), for which the melting point was 189 °C.
